Here are results for 7 compounds from US8357687B2, “Macrocyclic indole derivatives useful as hepatitis C virus inhibitors” (priority 2008, dated 2013).

Each structure is given as a SMILES string.

Experiment [1] concerns NS5B chimeric replicon of clinical isolate 1a_H77 in Huh7-cure cells. As to the kind of experiment: Transient replicon assay, chimeric replicon of clinical isolate 1a_H77 (CI1). It counts as cell-based, HCV genotype 1a. Particulars: Hepatitis C virus, 48 h, read-out: EC50-T CI1. On the technique in general: Replicon systems follow genome replication, usually without infectious particles.

Experiment [2] has as its system NS5B chimeric replicon of clinical isolate 1a—6 in Huh7-cure cells. As to the kind of experiment: Transient replicon assay, chimeric replicon of clinical isolate 1a—6 (CI2). It counts as cell-based, HCV genotype 1a. The conditions noted are these: Hepatitis C virus, 48 h, read-out: EC50-T CI2.
Experiment [3] concerns wild type replicon of genotype 1b (con1b) in Huh7-cure cells. The experiment is described as follows: Transient replicon assay, wild type replicon of genotype 1b (Con1b). It counts as cell-based, HCV genotype 1b. Particulars: Hepatitis C virus, transient wild type replicon genotype 1b, 48 h, luciferase, read-out: EC50-T Con1b.
Experiment [4] deals with T1, HCV NS5B polymerase (NS5BΔC21) (Hepatitis C virus genotype 1b, UniProt Q9WMX2).
T1 construct: NS5B (genotype 1b consensus strain Con1) lacking 21 C-terminal residues; made in house; host or cells: E. coli Rosetta 2 (DE3)
The experiment is described as follows: RNA-dependent RNA polymerase assay (enzyme inhibition assay). It counts as biochemical, HCV (genotype 1b consensus strain Con1). From the text: The coding sequence for NS5B (genotype 1b consensus strain Con1) lacking 21 C-terminal residues was amplified from plasmid pFKI389/ns3-3′ (Genbank accession no. AJ242654), plasmid pCV-H77C (Genbank accession no. AF 011751.1) and subcloned into the pET21b plasmid as described previously (Pauwels et al. J. Virol., 2007). The NS5BΔC21 expression constructs were transformed into E. coli Rosetta 2 (DE3) (Novagen, Madison, Wis.). One hundred milliliters of LB-medium supplemented with carbenicillin (50 μg/mL) and chloramphenicol (34 μg/mL) was inoculated with one colony, grown overnight, and transferred to fresh LB-medium supplemented with 3% ethanol, carbenicillin and chloramphenicol, at a ratio of 1:200. Cells were grown to an optical density at 600 nm of 0.6, after which the expression cultures were shifted to a growth temperature of 20° C. following induction with ispopropyl-1-thio-β-D-galactopyranoside and MgCl2 at a final concentration of 0.4 mM and 10 μM, respectively. After 18 h of induction, cells were harvested by centrifugation and resuspended in 20 mM Tris-HCl, pH 7.5, 300 mM NaCl, 10% glycerol, 0.1% NP40, 4 mM MgCl2, 5 mM DTT supplemented with EDTA-free Complete Protease Inhibitor (Roche, Basel, Switzerland). Cell suspensions were disrupted by sonication and incubated with 10-15 mg/L of DNase I (Roche, Basel, Switzerland) for 30 min. Cell debris was removed through ultracentrifugation at 30,000×g for 1 hour and clarified cell lysate was flash frozen and stored at −80° C. prior to purification.
Clarified cell lysate was thawed and subsequently loaded onto a 5 mL pre-packed HisTrap FF column equilibrated with 25 mM HEPES, pH 7.5, 500 mM NaCl, 10% glycerol and 5 mM DTT. Proteins were eluted with 500 mM imidazole at a flow rate of 1 mL/min. Fractions containing the protein of interest were applied onto a pre-packed 26/10 HiPrep Desalting Column equilibrated with 25 mM HEPES, pH 7.5, 250 mM NaCl, 10% glycerol and 5 mM DTT. The buffer-exchanged NS5B peak was then applied onto a 6 ml Resource S column. Protein was eluted with an increasing salt gradient and fractions collected. Protein purity was assessed on Nu-PAGE pre-cast gels (Invitrogen, Carlsbad, Calif.). Purified NS5B samples were concentrated using Centri-Prep concentrators (Millipore, Billerica, Mass., USA) and protein concentrations were determined by spectrofotometry with the Nanodrop (Nanodrop Technologies, Wilmington, Del., USA).
Measurement of HCV NS5B polymerization activity was performed by evaluating the amount of radio labeled GTP incorporated by the enzyme in a newly synthesized RNA using […] RNA template/primer. The RdRp assay was carried out in 384-well plates. 2.5 nM of purified NS5B enzyme was pre-incubated for 10 min with 150 nM 5′-biotinylated oligo(rG13) primer, 15 nM poly(rC) template, in 18 mM Tris-HCl, pH 7.5, 5 mM MgCl2, 20.5 mM KCl, 17 mM NaCl and 2.5 mM of DTT. The test compounds were the added to the preformed polymerase-template complex, and incubated at room temperature for 15 min before the addition 600 nM of GTP, and 0.13 μCi of [^3H]GTP. 30 μL reaction mixture was incubated at room temperature for 2 h before stopping the reaction by adding 30 μL of streptavidin coated SPA-beads (GE Healthcare, Uppsala, Sweden) in 0.5 M EDTA. […] IC50 values represent the concentration of compound required to decrease by 50% the amount of RNA produced which is measured by the detection of incorporated radiolabeled GTP.

Experiment [5] addresses T2, NS5B wild-type enzyme genotype 1a (Hepatitis C virus genotype 1a, UniProt P27958).
T2 construct: The purified HIS6-tagged NS5BΔC21 polymerases were immobilized; made in house; host or cells: E. coli Rosetta 2 (DE3)
As to the kind of experiment: Enzyme binding assay (SPR, Biacore), genotype 1a. Set-up: species or system HCV genotype 1a. The protocol: (§1) The compounds of formula (I) were examined for their enzymatic binding kinetics or affinity using a Surface Plasmon Resonance (SPR)-based method, i.e. Biacore. A slow dissociation of the inhibiting compound from its viral target (low koff, low Kd) is believed to potentially reduce the development of drug resistance against anti-viral drugs (Dierynck et al. 2007. Journal of Virology, vol. 81, No. 24, 13845-13851). All measurements were performed on a Biacore T100 instrument (GE Healthcare). The purified HIS6-tagged NS5BΔC21 polymerases were immobilized using non-covalent capturing to an NTA sensor chip (GE Healthcare) in immobilization buffer (20 mM MOPS pH 7.4, 500 mM NaCl, 0.005% Tween-P20, 1 mM DTT, 50 μM EDTA). Interaction studies were all performed at 25° C. Inhibitors were serially diluted in running buffer (20 mM Tris-HCl pH 7.4, 150 mM NaCl, 50 μM EDTA, 1 mM DTT, 0.005% Tween-P20) containing 5% dimethyl sulfoxide (DMSO). Single-cycle kinetics were used, in which 5 increasing concentrations of compound were injected for a period of 300 s each in 1 single cycle, and dissociation was monitored for a period of 1200 s. The sensor surface was completely regenerated in between the cycles. Data were analyzed using simultaneous nonlinear regression analysis (global fitting) adapted for single-cycle kinetics with Biacore T100 BiaEval evaluation software 2.0 (GE Healthcare). The individual rate constants kon and koff and a derived affinity constant, Kd=koff/kon, were determined by a kinetic evaluation of the sensorgrams. The kinetic models accounted for bulk and limited mass transport effects. Every analysis was performed at least in two independent experiments. The dissociation rate of a kinetic interaction can be translated into a compound residence time (dissociative half-life t1/2=ln(2)/koff) representative for the interaction time between the polymerase and its inhibitor.
(§2) The observed association rate constants (kon), dissociation rate constants (koff), derived affinity constant (Kd) and dissociative half-life (t1/2) measured for compounds of formula (I) or subgroups thereof on NS5B wild-type enzyme genotypes 1a, 1b and 4a are given in Table 2.
In general terms: Surface plasmon resonance follows binding to a sensor surface in real time, without labels.

Experiment [6] concerns the target T3, NS5B wild-type enzyme genotype 4a (UniProt O39929).
T3 construct: fused on or other part: His6 tag
The experiment is described as follows: Enzyme binding assay (SPR, Biacore), genotype 4a. The arrangement: species or system HCV genotype 4a. As to the method:
as §1, §2

The target in experiment [7] is T4, NS5B wild-type enzyme genotype 1b (Hepatitis C virus genotype 1b, UniProt Q9WMX2).
T4 construct: NS5B (genotype 1b consensus strain Con1) lacking 21 C-terminal residues; made in house; host or cells: E. coli Rosetta 2 (DE3)
As to the kind of experiment: Enzyme binding assay (SPR, Biacore), genotype 1b. The protocol:
as §1, §2

T2 sequence (P27958 2421-2990): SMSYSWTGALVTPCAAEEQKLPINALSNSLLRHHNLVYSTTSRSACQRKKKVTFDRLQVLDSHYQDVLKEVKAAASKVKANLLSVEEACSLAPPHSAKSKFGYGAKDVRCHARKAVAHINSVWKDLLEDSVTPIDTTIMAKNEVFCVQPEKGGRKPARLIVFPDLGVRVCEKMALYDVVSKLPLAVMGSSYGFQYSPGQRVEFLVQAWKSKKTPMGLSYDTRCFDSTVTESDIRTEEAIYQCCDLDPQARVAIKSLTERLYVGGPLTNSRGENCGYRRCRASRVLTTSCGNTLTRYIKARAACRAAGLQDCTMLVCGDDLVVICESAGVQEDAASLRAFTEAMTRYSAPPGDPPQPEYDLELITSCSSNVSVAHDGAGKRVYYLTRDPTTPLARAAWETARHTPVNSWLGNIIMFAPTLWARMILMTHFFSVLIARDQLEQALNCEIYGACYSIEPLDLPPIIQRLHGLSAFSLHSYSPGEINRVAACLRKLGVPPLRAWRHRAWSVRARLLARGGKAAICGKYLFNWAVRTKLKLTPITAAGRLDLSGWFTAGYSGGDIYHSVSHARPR

In general, EC50 refers to the concentration that produces a half-maximal response. The IC50 is the point on the concentration scale where inhibition reaches its midpoint. A higher IC50 goes with a need for much substance. Regarding `CN1CCCCCNC(=O)COc2ccccc2-c2c(C3CCCCC3)c3ccc(cc3n2C)C(=O)NS1(=O)=O` [Compound 21, 25-cyclohexyl-10,19-dimethyl-5,6,7,8,9,10-hexahydro-2H-14,18:17,20-di(metheno)-1,11,4,10,12,19-benzoxathiatetraazacyclodocosine-3,13(4H,12H,19H)-dione 11,11-dioxide], the EC50 stood at 0.055 µM in experiment [1], 0.095 µM in experiment [2] and 0.123 µM in experiment [3]. The same compound displayed an IC50 in experiment [4] of 0.148 µM.

For the compound `CN1CCN2CCN(CC2)C(=O)COc2ccccc2-c2c(C3CCCCC3)c3ccc(cc3n2C)C(=O)NS1(=O)=O` [Compound 22, 30-cyclohexyl-12,21-dimethyl-4-oxa-20-thia-1,12,19,21,24-pentaazapentacyclo[22.2.2.1^11,14.1^13,17.0^5,10]triaconta-5,7,9,11(30),13(29),14,16-heptaene-2,18-dione 20,20-dioxide], the EC50 came out at 0.156 µM in experiment [1], 0.201 µM in experiment [2] and 0.164 µM in experiment [3]. The compound also gave an IC50 in experiment [4] of 0.181 µM.

On to `CN1CCCCN(C)S(=O)(=O)NC(=O)c2ccc3c(C4CCCCC4)c(n(C4CCCC4)c3c2)-c2ccccc2OCC1=O` [Compound 40, 24-cyclohexyl-18-cyclopentyl-4,9-dimethyl-4,5,6,7,8,9-hexahydro-13,17:16,19-di(metheno)-1,10,4,9,11,18-benzoxathiatetraazacyclohenicosine-3,12(2H,11H,18H)-dione 10,10-dioxide], for which the EC50 in experiment [1] is 5.15 µM; in experiment [2] it was 5.27 µM; in experiment [3], 7.34 µM. In experiment [4], this compound registered an IC50 of 1.09 µM.

Usually Kd stands for the concentration at which binding is half-saturated. Read a high Kd as a looser complex. One may read the koff as the first-order rate constant of dissociation. Higher therefore signals fast dissociation. Take `CN1CCCCCNC(=O)COc2ccc(F)cc2-c2c(C3CCCCC3)c3ccc(cc3n2C)C(=O)NS1(=O)=O` [Compound 51, 25-cyclohexyl-22-fluoro-10,19-dimethyl-5,6,7,8,9,10-hexahydro-2H-14,18:17,20-di(metheno)-1,11,4,10,12,19-benzoxathiatetraazacyclodocosine-3,13(4H,12H,19H)-dione 11,11-dioxide]: in experiment [4], half-maximal inhibition (IC50) required 0.088 µM. Moreover, the Kd stood at 0.039 µM in experiment [5], 0.011 µM in experiment [6] (Kd=koff/kon) and 0.016 µM in experiment [7]. Besides, the koff in experiment [5] was 0.0035 s⁻¹; in experiment [6] (SPR, 25° C.) it was 0.0022 s⁻¹; in experiment [7] (genotype 1b, SPR, 25° C.), 0.00031 s⁻¹. For the same compound, the kon is recorded as 9.5E+04 1/MS in experiment [5] (genotype 1a, SPR, 25° C.); 1.9E+05 1/MS in experiment [6] (SPR, 25° C.); 2.0E+04 1/MS in experiment [7] (genotype 1b, SPR, 25° C.). For the same compound, the “t1/2 (dissociative half-life)” value in experiment [5] (genotype 1a, t1/2=ln(2)/koff) amounted to 3.3 min; in experiment [6] (t1/2=ln(2)/koff), 5.33 min; in experiment [7] (genotype 1b, t1/2=ln(2)/koff) it was 37.38 min.

Turning to `CC(C)n1c2c(C3CCCCC3)c3ccc(cc31)C(=O)NS(=O)(=O)N(C)CCOCCN(C)C(=O)COc1ccccc1-2` [Compound 52, 25-cyclohexyl-4,10-dimethyl-19-(1-methylethyl)-5,6,9,10-tetrahydro-2H,8H-14,18:17,20-di(metheno)-1,7,11,4,10,12,19-benzodioxathiatetraazacyclodocosine-3,13 (4H,12H,19H)-dione 11,11-dioxide], the EC50 in experiment [1] came to 7.14 µM; in experiment [2], 7.96 µM; in experiment [3], 7.66 µM. In experiment [4], this compound returned an IC50 of 1.66 µM.

Consider `COc1ccc2c(c1)OCC(=O)N(C)CCCCN(C)S(=O)(=O)NC(=O)c1ccc3c(C4CCCCC4)c-2n(C)c3c1` [Compound 53, 24-cyclohexyl-22-methoxy-4,9,18-trimethyl-4,5,6,7,8,9-hexahydro-13,17:16,19-di(metheno)-1,10,4,9,11,18-benzoxathiatetraazacyclohenicosine-3,12(2H,11H,18H)-dione 10,10-dioxide], for which the figures for the EC50 in experiment [1], in experiment [2] and in experiment [3] were 0.044 µM, 0.066 µM and 0.083 µM, respectively.

As for `COc1ccc2c(c1)OCC(=O)N(C)CCOCCN(C)S(=O)(=O)NC(=O)c1ccc3c(C4CCCCC4)c-2n(C)c3c1` [Compound 54, 25-cyclohexyl-23-methoxy-4,10,19-trimethyl-5,6,9,10-tetrahydro-2H,8H-14,18:17,20-di(metheno)-1,7,11,4,10,12,19-benzodioxathiatetraazacyclodocosine-3,13 (4H,12H,19H)-dione 11,11-dioxide], the EC50 in experiment [1] is 0.067 µM; in experiment [2] it was 0.081 µM; in experiment [3] it was 0.103 µM.
